According to patent US9642854B2, “Flavanoid compounds and process for preparation thereof” (Council of Scientific & Industrial Research, priority 2009, dated 2017):
Values after ≈ are worked out from the molar mass of the structure shown. Where two headings read alike, the source gives them in different places.

What was measured:
Format in all cases: cell-based, Helicobacter pylori
H. pylori [1] = assay: Anti H. pylori spectrum (MIC) by agar dilution method; details: Helicobacter pylori; for MIC50: MIC against 50% of the strains of the panel, read-out: MIC50
Procedure, shortened: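 Agar dilution per CLSI against six clinical isolates and four standard strains on BHI agar with 7% FCS, 0.5% IsoVitalex and DENT. Inoculum ~10^8 CFU/mL; 2-fold compound dilutions from 1.56-100; 72 h microaerophilic at 37 °C. MIC read visually as no growth, in duplicate; MIC50 covers 50% of strains.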

H. pylori [2] = assay: Acid stability study (pH ~2.0, 2 h, then MIC/MBC by microbroth dilution); details: for MBC / MIC: Helicobacter pylori
Procedure: Details of experimental protocol are described under Experiment 7. MIC/MBC values were determined by microbroth dilution assay.
A 100 μL stock of CPP-1, NMC-1, NMC-2 and CPP-3 (1-2 mg/mL) was treated with 20-30 μL of 0.12 NHCl to bring the pH of the solution to ^˜2.0, and kept at 25° C. for 2 h (Funatogawa et al., 2004). Such acid-treated samples were then serially diluted (2 fold) with medium in 96-well microtitre plates to determine the MIC and the MBC values by microbroth dilution assay as detailed under Experiment 3.

H. pylori ATCC 43504 [3] = assay: Transmission electron microscopy of morphological transformation; details: 24 h
Text: The morphological alteration of H. pylori cells (ATCC® 43504) exposed to various concentrations of CPP-1 was further examined using transmission electron microscopy (Dai et al., 2005). […] Samples were dehydrated, embedded in SPUR, sections cut and applied to copper grids. The grids were contrasted with uranyl acetate and lead citrate and the sections were examined on a transmission electron microscope.

[4] = test system: H. pylori clinical strain HP001; assay: Acridine orange fluorescence microscopy of morphological transformation; details: 24 h
Procedure: Acridine orange fluorescence microscopic evidence is provided. The details of experimental procedures are provided under Experiment 9.
For the purpose of fluorescence staining, a bacterial smear was prepared, fixed with methanol for 2 min, stained with 0.1% acridine orange solution for 2-3 min, rinsed thoroughly with distilled water (Haqqani, 2001) and observed under fluorescence microscopy using 1-3 filter (emission wavelength 510 nm). The live organism appeared as orange color in the dark background and the non-viable cells as green (Shirai et al., 2000).

H. pylori [5] = assay: MIC and MBC by microbroth dilution assay; details: for MBC / MIC: Helicobacter pylori
Procedure, shortened: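 Two-fold serial dilutions in Mueller Hinton broth with 5% FCS, inoculated with clinical strain HP001 or ATCC 43504 at ~10^6 CFU/mL, incubated 72 h at 37° C under microaerophilic conditions. MIC is the lowest concentration with no visible growth; MBC from streaking growth-free wells onto BHI agar.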

H. pylori ATCC 43504 [6] = assay: Short time kill kinetics in shake culture at different pH
H. pylori [7] = assay: Time kill kinetic analyses in biphasic culture
[8] = ATCC43504, microbroth dilution, ATCC 43504

`O=c1cc(-c2ccccc2)oc2cc(OCCCCCCN3CCCCC3)cc(O)c12` [CPP-1, 5-Hydroxy-2-phenyl-7-(6-piperidin-1-yl-hexyloxy)-chromen-4-one] was tested. Which MIC50 (H. pylori [1]; 72 h) did it give?
The MIC50 was roughly 3.12 µg/mL (≈ 7.41 µM).

And the MIC (H. pylori [1]; 72 h, panel of 6 clinical isolates and 4 standard strains, read-out: MIC Range)?
The MIC was 3.12 to 25 µg/mL (≈ 7.41 to 59.3 µM).

And the MIC50 (H. pylori [1])?
Its MIC50 is 3.12 µg/mL (≈ 7.41 µM).

What about the MIC (H. pylori [1]; clinical strain HP001, read-out: MIC) of the same compound?
The MIC was 6.25 µg/mL (≈ 14.8 µM).

And the MIC (H. pylori [1]; clinical strain HP002, read-out: MIC)?
The MIC was 6.25 µg/mL (≈ 14.8 µM).

And the MIC (H. pylori [1]; clinical strain HP003, read-out: MIC)?
The MIC was less than 3.12 µg/mL.

What about the MIC (H. pylori [1]; clinical strain HP004, read-out: MIC) of the same compound?
Its MIC is less than 3.12 µg/mL.

What about the MIC (H. pylori [1]; clinical strain HP005, read-out: MIC) of the same compound?
The MIC was less than 3.12 µg/mL.

What about the MIC (H. pylori [1]; clinical strain HP006, read-out: MIC) of the same compound?
Its MIC is less than 3.12 µg/mL.

And the MIC (H. pylori [1]; standard strain 43504, read-out: MIC)?
Its MIC is 6.25 µg/mL (≈ 14.8 µM).

And the MIC (H. pylori [1]; standard strain 43629, read-out: MIC)?
Its MIC is 25 µg/mL (≈ 59.3 µM).

What about the MIC (H. pylori [1]; standard strain 49503, read-out: MIC) of the same compound?
The MIC was 6.25 µg/mL (≈ 14.8 µM).

What about the MIC (H. pylori [1]; standard strain 700392, read-out: MIC) of the same compound?
Its MIC is 3.12 µg/mL (≈ 7.41 µM).

And the MBC (H. pylori [2]; 2 h, pH ~2.0, 2 h, 25° C., 43504, read-out: MBC, Acid treated)?
The MBC was 25000 µg/mL (≈ 59300 µM).

And the MIC (H. pylori [2]; 2 h, pH ~2.0, 2 h, 25° C., 43504, read-out: MIC, Acid treated)?
Its MIC is 12500 µg/mL (≈ 29700 µM).

And the MBC (H. pylori [2]; 2 h, pH ~2.0, 2 h, 25° C., HP001, read-out: MBC, Acid treated)?
Its MBC is less than 12500 µg/mL.

What about the MIC (H. pylori [2]; 2 h, pH ~2.0, 2 h, 25° C., HP001, read-out: MIC, Acid treated) of the same compound?
The MIC was 12500 µg/mL (≈ 29700 µM).

And the MBC (H. pylori [2]; not acid treated, 43504, read-out: MBC, Control)?
The MBC was less than 6250 µg/mL.

What about the MIC (H. pylori [2]; not acid treated, 43504, read-out: MIC, Control) of the same compound?
The MIC was 6250 µg/mL (≈ 14800 µM).

And the MBC (H. pylori [2]; not acid treated, HP001, read-out: MBC, Control)?
Its MBC is 12500 µg/mL (≈ 29700 µM).

What about the MIC (H. pylori [2]; not acid treated, HP001, read-out: MIC, Control) of the same compound?
Its MIC is 6250 µg/mL (≈ 14800 µM).

What about the “increase in MIC and MBC values upon exposure to acid” value (H. pylori [2]; pH 2.0 for 2 hours) of the same compound?
Its value is “about 2 fold”.

What about the “morphological alteration (transmission electron microscope)” value (H. pylori ATCC 43504 [3]; 6.25 μg/mL) of the same compound?
Its value is “only few bacteria with intact shape and structure”.

What about the “morphological alteration (transmission electron micrographs)” value (H. pylori ATCC 43504 [3]; 6.25 or […]) of the same compound?
The value was “induced swelling and vacuole like structures in the cytoplasm of H. pylori cells”.

And the “morphological alteration (transmission electron microscope)” value (H. pylori ATCC 43504 [3]; […])?
The value was “most cells were found to be progressively swollen and destroyed”.

What about the “morphological alteration (fluorescence microscopy)” value ([4]; 3.125 mg/mL (so in the source)) of the same compound?
The value was “resembled almost like control with some deformation”.

What about the “morphological alteration (fluorescence microscopy)” value ([4]; 6.25 and […] (so in the source)) of the same compound?
The value was “progressively deteriorating cell population leading to more of non-viable cells (green fluorescence) and coccid formation”.

And the MBC (H. pylori [5]; [8])?
The MBC was roughly 6.25 µg/mL (≈ 14.8 µM).

What about the MIC (H. pylori [5]; [8]) of the same compound?
Its MIC is roughly 6.25 µg/mL (≈ 14.8 µM).

And the MBC (H. pylori [5]; microbroth dilution, HP001)?
The MBC was 12.5 µg/mL (≈ 29.7 µM).

And the MIC (H. pylori [5]; microbroth dilution, HP001)?
The MIC was 6.25 µg/mL (≈ 14.8 µM).

And the MBC (H. pylori [5]; range over strains)?
The MBC was 6.25 to 12.5 µg/mL (≈ 14.8 to 29.7 µM).

And the MIC/MBC dose range (H. pylori [5]; dose range at which irreversible morphological deformation is induced)?
Its MIC/MBC dose range is 6.25 to 12.5 µg/mL.

What about the decrease of growth (H. pylori ATCC 43504 [6]; 50 mg/mL (so in the source), pH 4.0, 5.0 and 6.0, short exposure) of the same compound?
Its decrease of growth is 3 log.

What about the survival of bacteria (H. pylori ATCC 43504 [6]; 50 mg/mL (so in the source), pH 7.2) of the same compound?
The survival of bacteria was “the bacteria survived”.

And the “rate of killing as function of pH” value (H. pylori ATCC 43504 [6]; 100 and 150 mg/mL (so in the source))?
The value was “the rate of killing was found to increase as the pH of the media raised”.

What about the “decrease in cell count within 36 h” value (H. pylori [7]; ATCC 43504, 0.5×MIC (3.125 μg/mL)) of the same compound?
The value was “f-log decrease in cell count”.

And the “time to complete killing” value (H. pylori [7]; ATCC 43504, 1×MIC (6.25 μg/mL))?
The value was no more than 36 h.

What about the “time at which killing/inhibition became evident” value (H. pylori [7]; HP001, biphasic culture) of the same compound?
Its value is no more than 6 h.

And the “killing at MIC dose (1×MIC)” value (H. pylori [7]; HP001, up to 36 h)?
Its value is “not high enough to produce total bactericidal activity”.
